In one experiment the target is T1, human mu opioid receptor (Homo sapiens, UniProt P35372).
T1 construct: expressed in transfected cells; host or cells: CHO cells, stably transfected
The experiment can be described thus: Radioligand binding, [3H]DAMGO (μ), CHO membranes. The text has this: (§1) Compounds can be characterized in radioligand receptor binding assays, using ligands that are specific for the mu, delta and kappa receptors. The binding assays may utilize guinea pig brain membranes or stably transfected Chinese Hamster Ovary (CHO) cells expressing each of the three opioid receptors. Membranes can be isolated from CHO cells that stably express either the human mu, delta or kappa opioid receptors. At approximately 80% confluence, the cells are harvested by the use of a cell scraper. The cells and media from the plates are centrifuged at 200×g for 10 mm at 4° C.; resuspended in 50 mM Tris-HCl, pH 7.5; homogenized by the use of a Polytron; centrifuged at 48,000×g for 20 mm at 4° C.; and resuspended in 50 mM Tris-HCl, pH 7.5, at a protein concentration of 5-10 mg/ml, as determined by the Bradford method. The membranes are stored frozen, at −80° C. until use.
(§2) Cell membranes are incubated at 25° C. with the radiolabeled ligands in a final volume of 1 ml of 50 mM Tris-HCl, pH 7.5. […] Nonspecific binding is measured by inclusion of 1 μM naloxone. The binding can be terminated by filtering the samples through Schleicher & Scheull No. 32 glass fiber filters using a Brandel 48-well cell harvester. The filters are subsequently washed three times with 3 ml of cold 50 mM Tris-HCl, pH 7.5, and can be counted in 2 ml of Ecoscint A scintillation fluid. For [^3H]U69,593 binding, the filters are soaked in 0.1% polyethylenimine for at least 30 minutes before use. IC50 values can be calculated by a least squares fit to a logarithm-probit analysis. Ki values of unlabeled compounds are calculated from the equation Ki=(IC50)/1+S where S=(concentration of radioligand) (Kd of radioligand). Cheng and Prusoff, Biochem. Pharmacol. 22:3099 (1973). Alternatively, guinea pig brain membranes can be prepared and used as previously described in Neumeyer, et al., J. Med. Chem. 43:114 (2000).
(§3) As described in Example 12, 0.5 milligrams of protein per sample was incubated with 12 different concentrations of the compounds in the presence of receptor-specific radioligands at 25° C. in a final volume of 1 mL (50 mM Tris-HCl buffer, pH 7.5). Nonspecific binding was determined using 10 μM naloxone. The data in Table 1 are the mean values SEM from three experiments performed in triplicate.
(§4) Four 10-ketomorphinan compounds, see Table 2, were evaluated for their affinity and selectivity at the three opioid receptors. As described in Example 12, 0.5 milligrams of protein per sample was incubated with 12 different concentrations of the compounds in the presence of receptor-specific radioligands at 25° C. in a final volume of 1 mL (50 mM Tris-HCl buffer, pH 7.5). Nonspecific binding was determined using 10 μM naloxone. The data in Table 2 are the mean values SEM from three experiments performed in triplicate.

The target in experiment [1] is T2, human delta opioid receptor (Homo sapiens, UniProt P41143).
T2 construct: expressed in transfected cells; host or cells: CHO cells, stably transfected
The experiment can be described thus: Radioligand binding, [3H]naltrindole (δ), CHO membranes.
Source text: as §1, §2, §3, §4

Experiment [2] concerns the target T3, human kappa opioid receptor (Homo sapiens, UniProt P41145).
T3 construct: expressed in transfected cells; host or cells: CHO cells, stably transfected
The experiment can be described thus: Radioligand binding, [3H]U69,593 (κ), CHO membranes. To be noted: for Selectivity δ:κ / Selectivity μ:κ: ratio of Ki values.
Source text: as §1, §2, §3, §4

The next experiment deals with T4, kappa receptor (Homo sapiens, UniProt P41145).
T4 construct: expressed in transfected cells; host or cells: CHO cell lines
The experiment can be described thus: [35S]GTPgammaS binding assay, kappa receptor. The note with it: CHO membranes. Type of experiment: biochemical. Here is the method: (§5) Membranes from the CHO cell lines, expressing either the mu, delta or kappa receptor, are incubated with 12 concentrations of each opioid for 60 minutes at 30° C. in a final volume of 0.5 ml of assay buffer (50 mM Tris-HCl, 3 mM MgCl2, 0.2 mM EGTA, 100 mM NaCl, pH 7.5) containing 3 μM GDP and 0.08 nM [^35S]GTPgammaS. Basal binding can be determined in the presence of GDP and the absence of opioids, and nonspecific binding can be determined by including 10 μM unlabeled […]. The incubation can be terminated by filtration under vacuum through glass fiber filters, followed by three washes with 3 ml ice-cold 50 mM Tris-HCl, pH 7.5. Samples can be allowed to equilibrate overnight and can be counted in 2 ml Ecoscint A scintillation fluid for 2 minutes in a liquid scintillation counter.
(§6) For [^35S]GTPgammaS binding assays, percent stimulation of [^35S]GTPgammaS binding is defined as [(opioid-stimulated binding-basal binding) basal binding]×100. Percent stimulation is plotted as a function of opioid concentration (log scale), and EC50 and Emax values are determined by linear regression analysis. All data is compared across conditions using ANOVA and non-paired two-tailed Student's tests.
A general note: GTPγS resists hydrolysis and so accumulates on activated G proteins.

For a further experiment, the target named is T5, mu receptor (Homo sapiens, UniProt P35372).
T5 construct: expressed in transfected cells; host or cells: CHO cell lines
The experiment is described as follows: [35S]GTPgammaS binding assay, mu receptor. It is filed as biochemical. To be noted: CHO membranes. Here is the method:
as §5, §6

[3] abbreviates: read-out: Ki (nM) ± SE [3H]Naltrindole (δ), Table 2, CHO membranes, 25° C., mean ± SEM of three experiments in triplicate.
Setting [4] is: read-out: Ki (nM) ± SE [3H]DAMGO (μ), Table 1, CHO membranes, 25° C., mean ± SEM of three experiments in triplicate.
Setting [5] is: read-out: Ki (nM) ± SE [3H]Naltrindole (δ), Table 1, CHO membranes, 25° C., mean ± SEM of three experiments in triplicate.
[6] abbreviates: Table 1, CHO membranes, 25° C., mean ± SEM of three experiments in triplicate, read-out: Ki (nM) ± SE [3H]U69,593 (κ).
Setting [7] is: Table 1, CHO membranes, 25° C., mean ± SEM of three experiments in triplicate.

Where two headings read alike, the source gives them in different places.

T2 sequence (P41143 whole entry): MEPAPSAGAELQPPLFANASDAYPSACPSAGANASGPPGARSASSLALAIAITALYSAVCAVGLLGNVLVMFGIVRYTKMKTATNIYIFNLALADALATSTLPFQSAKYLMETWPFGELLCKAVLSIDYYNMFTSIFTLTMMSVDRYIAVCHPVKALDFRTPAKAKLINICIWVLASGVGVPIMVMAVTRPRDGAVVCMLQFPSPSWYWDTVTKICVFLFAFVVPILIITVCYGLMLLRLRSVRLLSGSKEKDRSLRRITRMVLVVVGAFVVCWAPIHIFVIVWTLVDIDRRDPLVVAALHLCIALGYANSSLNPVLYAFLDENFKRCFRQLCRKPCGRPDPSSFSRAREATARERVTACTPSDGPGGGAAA
T1 sequence (P35372 whole entry): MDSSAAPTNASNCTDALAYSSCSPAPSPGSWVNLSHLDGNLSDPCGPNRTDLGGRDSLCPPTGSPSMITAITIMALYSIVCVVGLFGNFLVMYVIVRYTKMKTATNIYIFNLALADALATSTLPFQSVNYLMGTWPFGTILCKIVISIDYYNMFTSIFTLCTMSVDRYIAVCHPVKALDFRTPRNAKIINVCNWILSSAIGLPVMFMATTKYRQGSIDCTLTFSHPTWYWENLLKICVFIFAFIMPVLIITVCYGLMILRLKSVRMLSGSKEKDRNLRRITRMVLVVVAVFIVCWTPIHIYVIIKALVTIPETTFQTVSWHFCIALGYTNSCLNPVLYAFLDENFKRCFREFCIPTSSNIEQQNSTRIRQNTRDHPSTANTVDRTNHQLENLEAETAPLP
T3 sequence (P41145 whole entry): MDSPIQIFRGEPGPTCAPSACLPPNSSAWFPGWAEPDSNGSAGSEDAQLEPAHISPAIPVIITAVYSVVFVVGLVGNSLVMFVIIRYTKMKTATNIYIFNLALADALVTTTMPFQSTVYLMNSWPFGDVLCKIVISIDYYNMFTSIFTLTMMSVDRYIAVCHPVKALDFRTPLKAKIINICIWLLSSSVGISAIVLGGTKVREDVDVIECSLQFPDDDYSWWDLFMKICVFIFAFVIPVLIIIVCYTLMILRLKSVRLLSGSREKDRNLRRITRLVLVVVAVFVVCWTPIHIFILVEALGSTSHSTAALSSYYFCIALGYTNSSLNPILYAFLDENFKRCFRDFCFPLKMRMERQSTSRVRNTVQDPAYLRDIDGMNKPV
T4 sequence (P41145 whole entry): as above
T5 sequence (P35372 whole entry): as the sequence (P35372 whole entry) above

For orientation: Ki means the dissociation constant of the complex between target and ligand, obtained from inhibition or displacement. Consider `O=C1c2ccc(O)cc2[C@@]23CCCC[C@H]2[C@@H]1N(CCc1ccccc1)CC3` [Compound 77, 3-Hydroxy-10-keto-N-(2-phenylethyl)morphinan], for which the Ki amounted to 0.63 ± 0.07 nM on human mu opioid receptor, 9.7 ± 0.34 nM in experiment [1] (setting [3]) and 7.7 ± 0.19 nM in experiment [2]. Further, the “Selectivity δ:κ” value in experiment [2] (Table 2) is 1.3. Besides, the “Selectivity μ:κ” value in experiment [2] (Table 2) was 0.08.
In the case of `Nc1nc2cc3c(cc2s1)C[C@@H]1[C@@H]2CCCC[C@]32CCN1CC1CCC1` [Compound 72], the figures for the Ki (at human mu opioid receptor (setting [4]); in experiment [1] (setting [5]); in experiment [2] (setting [6])) were 7.1 ± 0.47 nM, 230 ± 21 nM and 0.79 ± 0.02 nM, respectively. Also, the “Selectivity δ:κ” value in experiment [2] (Table 1) amounted to 290. In addition, the “Selectivity μ:κ” value in experiment [2] (Table 1) worked out at 9.0. Further, at kappa receptor, the “Efficacy (agonist, partial agonist, antagonist) at κ receptor” value is given as “κ agonist”. The “Efficacy (agonist, partial agonist, antagonist) at μ receptor” value at mu receptor is “weak agonist and antagonist activity”.
Turning to `Nc1nc2cc3c(cc2s1)C[C@@H]1[C@@H]2CCCC[C@]32CCN1CC1CC1` [Compound 71], the Ki at human mu opioid receptor (setting [4]) was found to be 1.5 ± 0.21 nM. Also, in experiment [1] (setting [5]), the Ki came out at 29 ± 2 nM. Moreover, the Ki in experiment [2] (setting [6]) is 0.049 ± 0.0046 nM. Moreover, in experiment [2] (Table 1), the “Selectivity δ:κ” value was 590 and the “Selectivity μ:κ” value is 30. Besides, at kappa receptor, the “Efficacy (agonist, partial agonist, antagonist) at κ receptor” value was “κ and μ agonist”; the “Relative potency κ versus μ” value is reported as “more potent at κ than at μ”. Also, the “Efficacy (agonist, partial agonist, antagonist) at μ receptor” value on mu receptor is “κ and μ agonist”.
Take `CN1CC[C@]23CCCC[C@H]2[C@H]1Cc1cc2sc(N)nc2cc13` [Compound 69]: the Ki at human mu opioid receptor (setting [4]) was 130 ± 5.8 nM; in experiment [1] (setting [5]) it was 1100 ± 30 nM; in experiment [2] (setting [6]), 29 nM. Besides, in experiment [2] (Table 1), the “Selectivity δ:κ” value is listed as 38. Further, in experiment [2] (Table 1), the “Selectivity μ:κ” value is 4.5.
On to `CN1CC[C@]23CCCC[C@H]2[C@H]1Cc1c3ccc2nc(N)sc12` [Compound 70], for which the Ki at human mu opioid receptor (setting [7]) amounted to 1.1 ± 0.13 nM; in experiment [1] (setting [7]) it was 190 ± 9.7 nM; in experiment [2] (setting [6]), 6.4 ± 0.53 nM. For the same compound, the “Selectivity δ:κ” value in experiment [2] (Table 1) is recorded as 30. For the same compound, in experiment [2] (Table 1), the “Selectivity μ:κ” value amounted to 0.17.
In the case of `COCCN1CC[C@]23CCCC[C@H]2[C@H]1C(=O)c1ccc(O)cc13` [Compound 76, 3-Hydroxy-10-keto-N-(2-methoxyethyl)morphinan], the inhibitory constant (Ki) at human mu opioid receptor is 90 ± 10 nM; in experiment [1], greater than 10000 nM; in experiment [2] it was 17 ± 0.6 nM. Further, in experiment [2] (Table 2), the “Selectivity δ:κ” value was 590. Besides, the “Selectivity μ:κ” value in experiment [2] (Table 2) is 5.3.
As to `C#CCN1CC[C@]23CCCC[C@H]2[C@H]1C(=O)c1ccc(O)cc13` [Compound 73, 3-Hydroxy-10-keto-N-propargylmorphinan], the results for the Ki (at human mu opioid receptor; in experiment [1] (setting [3]); in experiment [2]) were 190 ± 4.4 nM, 2300 ± 190 nM and 60 ± 1.7 nM, respectively. For the same compound, in experiment [2] (Table 2), the “Selectivity δ:κ” value is reported as 38. Also, in experiment [2] (Table 2), the “Selectivity μ:κ” value came out at 3.2.
For `O=C1c2ccc(O)cc2[C@@]23CCCC[C@H]2[C@@H]1N(CCCF)CC3` [Compound 75, 3-Hydroxy-10-keto-N-(3-fluoropropyl)morphinan], the Ki on human mu opioid receptor came out at 20 ± 4.8 nM; in experiment [1] (setting [3]), 690 ± 171 nM.
Take `O=C1c2ccc(O)cc2[C@@]23CCCC[C@H]2[C@@H]1N(CC1CCC1)CC3` [Compound 74, 3-Hydroxy-10-keto-N-cyclobutylmethylmorphinan]: the Ki came out at 3.3 ± 0.26 nM on human mu opioid receptor (read-out: Ki (nM) ± SE [3H]DAMGO (μ), Table 2, CHO membranes, 25° C., mean ± SEM of three experiments in triplicate); 260 ± 55 nM in experiment [1] (setting [3]); 0.48 ± 0.027 nM in experiment [2] (Table 2, CHO membranes, 25° C., mean ± SEM of three experiments in triplicate, read-out: Ki (nM) ± SE [3H]U69,593 (κ)). For the same compound, the “Selectivity δ:κ” value in experiment [2] (Table 2) is on record as 540. In addition, in experiment [2] (Table 2), the “Selectivity μ:κ” value came to 6.9.

The values above are taken from patent US7271173B2, “Mixed kappa/mu opioids and uses thereof” (The McLean Hospital Corporation, priority 2002, dated 2007).
